# Assay results reported in ChEMBL document CHEMBL1201862, “PubChem BioAssay data set” (2004).
# Activity calls are given as the source filed them.
# What was measured:
# [1] = target: T1, Neuropeptide Y receptor type 2 (Homo sapiens, UniProt P49146); type: functional, cell-based;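 for IC50: HEK293 cells expressing the receptor and a CNG channel; stimulus was NPY near EC95 followed by isoproterenol to raise cAMP; antagonist potency measured as restoring cAMP signal that NPY suppresses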
# [2] = target: T2, Neuropeptide Y receptor type 1 (Homo sapiens, UniProt P25929); type: functional;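 for IC50: HEK293 cells with a CNG channel challenged with NPY then isoproterenol; potency as antagonist that reverses NPY suppression of cAMP signal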
# T2 sequence (P25929 whole entry): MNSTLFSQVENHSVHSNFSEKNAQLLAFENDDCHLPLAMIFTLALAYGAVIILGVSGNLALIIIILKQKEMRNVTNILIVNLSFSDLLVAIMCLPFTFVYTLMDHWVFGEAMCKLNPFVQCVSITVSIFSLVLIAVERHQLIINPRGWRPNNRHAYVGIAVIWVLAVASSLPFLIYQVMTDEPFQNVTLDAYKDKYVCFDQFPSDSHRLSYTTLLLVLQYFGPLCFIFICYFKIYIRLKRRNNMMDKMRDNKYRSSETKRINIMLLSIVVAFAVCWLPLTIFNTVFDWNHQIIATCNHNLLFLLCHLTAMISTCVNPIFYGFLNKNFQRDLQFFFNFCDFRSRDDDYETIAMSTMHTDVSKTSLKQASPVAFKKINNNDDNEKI
# [3] = target: Luciferin 4-monooxygenase (Photinus pyralis, UniProt P08659); assay: inhibition of purified Photinus pyralis luciferase – biochemical, luminescence, dose response (AID 1891)
# Sequence of Luciferin 4-monooxygenase (P08659 whole entry): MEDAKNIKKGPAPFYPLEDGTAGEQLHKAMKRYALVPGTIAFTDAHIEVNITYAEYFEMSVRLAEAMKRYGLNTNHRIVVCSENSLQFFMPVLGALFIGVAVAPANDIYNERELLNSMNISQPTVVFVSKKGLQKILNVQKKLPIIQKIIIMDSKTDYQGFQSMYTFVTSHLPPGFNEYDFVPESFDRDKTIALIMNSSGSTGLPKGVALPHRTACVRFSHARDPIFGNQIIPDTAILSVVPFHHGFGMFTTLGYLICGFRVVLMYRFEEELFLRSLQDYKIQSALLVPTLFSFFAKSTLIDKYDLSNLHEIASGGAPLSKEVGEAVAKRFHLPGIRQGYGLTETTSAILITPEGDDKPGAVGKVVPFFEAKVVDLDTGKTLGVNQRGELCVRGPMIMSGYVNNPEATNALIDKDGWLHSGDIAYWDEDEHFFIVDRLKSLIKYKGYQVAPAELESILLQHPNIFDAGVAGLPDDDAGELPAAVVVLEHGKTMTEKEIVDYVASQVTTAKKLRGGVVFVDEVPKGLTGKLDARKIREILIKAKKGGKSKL
# [4] = Luminescence Cell-Based Dose Confirmation HTS to Identify Inhibitors of Platelet Dense Granule Release. [Related pubchem assays: 1663 (Primary HTS), 1678 (Summary of Project)]; type: functional
# [5] = viability loss of HPDE-C7K cells – cell-based, fluorescence, HTS, primary screen (AID 431); type: functional; details: Homo sapiens
# [6] = HPDE-C7 pancreatic duct cell viability loss – fluorescence, HTS (AID 430); type: functional, cell-based; details: Homo sapiens
# [7] = target: T3, Insulin-degrading enzyme (Homo sapiens, UniProt P14735); assay: Dose Response: Fluorescence polarization-based cell-based high throughput dose response assay for inhibitors of insulin-degrading enzyme (IDE). [Related pubchem assays: 434962 (Primary screen (IDE inhibitors in singlicate)), 449730 (Counterscreen (Cytotoxicity in triplicate)), 435028 (Confirmation (IDE inhibitors in triplicate)), 434984 (Summary …; type: functional
# T3 sequence (P14735 whole entry): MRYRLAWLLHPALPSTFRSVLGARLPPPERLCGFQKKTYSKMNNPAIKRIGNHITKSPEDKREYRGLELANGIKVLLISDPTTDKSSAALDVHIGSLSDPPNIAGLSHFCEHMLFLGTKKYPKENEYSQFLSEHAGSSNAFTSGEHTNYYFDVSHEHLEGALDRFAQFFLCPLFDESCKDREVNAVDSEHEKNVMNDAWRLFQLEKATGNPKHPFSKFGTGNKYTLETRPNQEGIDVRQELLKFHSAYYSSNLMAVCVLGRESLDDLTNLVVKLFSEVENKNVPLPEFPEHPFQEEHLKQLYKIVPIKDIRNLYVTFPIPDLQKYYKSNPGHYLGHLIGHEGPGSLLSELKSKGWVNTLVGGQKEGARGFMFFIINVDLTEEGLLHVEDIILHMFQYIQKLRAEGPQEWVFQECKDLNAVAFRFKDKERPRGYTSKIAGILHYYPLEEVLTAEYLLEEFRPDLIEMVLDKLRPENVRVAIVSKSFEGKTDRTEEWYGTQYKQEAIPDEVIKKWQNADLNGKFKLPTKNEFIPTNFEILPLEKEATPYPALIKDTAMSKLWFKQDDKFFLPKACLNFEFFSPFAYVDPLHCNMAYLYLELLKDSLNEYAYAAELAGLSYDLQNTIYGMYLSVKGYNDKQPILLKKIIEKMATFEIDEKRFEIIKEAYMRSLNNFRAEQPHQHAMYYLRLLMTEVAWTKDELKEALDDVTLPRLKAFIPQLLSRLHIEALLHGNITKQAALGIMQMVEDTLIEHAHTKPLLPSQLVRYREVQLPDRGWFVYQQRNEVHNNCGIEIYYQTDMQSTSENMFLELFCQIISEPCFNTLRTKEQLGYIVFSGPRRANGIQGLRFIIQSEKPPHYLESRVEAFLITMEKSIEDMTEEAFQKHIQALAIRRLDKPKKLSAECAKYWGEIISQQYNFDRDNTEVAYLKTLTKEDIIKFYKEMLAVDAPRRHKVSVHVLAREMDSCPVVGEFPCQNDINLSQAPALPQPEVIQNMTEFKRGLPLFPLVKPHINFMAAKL
# [8] = Counterscreen for IDE inhibitors: Luminescence-based cell-based high throughput dose response assay to identify compounds that are cytotoxic to HEK cells. [Related pubchem assays: 434962 (Primary screen (IDE inhibitors in singlicate)), 449730 (Counterscreen (Cytotoxicity in triplicate)), 435028 (Confirmation (IDE inhibitors in triplicate)) …; type: functional; details: HEK293
# [9] = target: T4, Polyadenylate-binding protein 1 (Homo sapiens, UniProt P11940); assay: MLLE domain peptide-binding blockers, IC50 – biochemical, fluorescence polarization, FITC-PAM2 peptide, dose response (AID 602259); type: functional; details: read-out: IC50_Mean
# T4 sequence (P11940 whole entry, the tested form may be a part): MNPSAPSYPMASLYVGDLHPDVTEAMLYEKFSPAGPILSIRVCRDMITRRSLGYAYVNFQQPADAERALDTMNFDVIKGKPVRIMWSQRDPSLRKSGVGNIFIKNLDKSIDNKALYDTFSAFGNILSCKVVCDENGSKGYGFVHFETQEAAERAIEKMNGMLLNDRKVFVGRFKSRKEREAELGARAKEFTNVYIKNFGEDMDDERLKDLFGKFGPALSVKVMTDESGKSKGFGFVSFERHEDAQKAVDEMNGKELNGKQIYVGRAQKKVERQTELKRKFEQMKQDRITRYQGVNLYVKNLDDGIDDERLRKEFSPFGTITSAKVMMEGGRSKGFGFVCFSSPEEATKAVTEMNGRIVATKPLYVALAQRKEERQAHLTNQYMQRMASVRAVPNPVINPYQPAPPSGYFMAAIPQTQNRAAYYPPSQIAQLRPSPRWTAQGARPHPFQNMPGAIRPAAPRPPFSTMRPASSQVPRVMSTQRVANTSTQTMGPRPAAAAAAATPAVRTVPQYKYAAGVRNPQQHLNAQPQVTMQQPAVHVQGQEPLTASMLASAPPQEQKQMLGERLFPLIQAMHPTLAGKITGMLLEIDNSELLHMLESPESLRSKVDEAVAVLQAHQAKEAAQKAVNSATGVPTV
# [10] = target: T4, Polyadenylate-binding protein 1; assay: MLLE binding blockers, Cy5 peptide tracer – biochemical, fluorescence polarization, Cy5-PAM2 peptide, secondary, miRNA deadenylation inhibitor project, dose response (AID 602260); type: functional; details: read-out: IC50_Mean
# [11] = NIH3T3 cell viability loss – ATP luminescence, mouse fibroblasts, counter-screen, dose response (AID 2010); type: functional, cell-based;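 note: cells exposed to compound for about 90 hours before reading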
# [12] = target: Sphingosine 1-phosphate receptor 1 (Homo sapiens, UniProt P21453); type: functional;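 note: Tango beta-arrestin reporter U2OS cells stimulated with S1P near its EC80; inhibitor potency meaning antagonism of receptor activation by the natural agonist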
# [13] = target: Sphingosine 1-phosphate receptor 4 (Homo sapiens, UniProt O95977); assay: Fluorescence dose response cell-based high throughput screening assay for antagonists of the Sphingosine 1-Phosphate Receptor 4 (S1P4). [Related pubchem assays: 1524 (Confirmation in triplicates.), 1510 (Primary screen.)]; type: functional
# Sequence of Sphingosine 1-phosphate receptor 4 (O95977 whole entry): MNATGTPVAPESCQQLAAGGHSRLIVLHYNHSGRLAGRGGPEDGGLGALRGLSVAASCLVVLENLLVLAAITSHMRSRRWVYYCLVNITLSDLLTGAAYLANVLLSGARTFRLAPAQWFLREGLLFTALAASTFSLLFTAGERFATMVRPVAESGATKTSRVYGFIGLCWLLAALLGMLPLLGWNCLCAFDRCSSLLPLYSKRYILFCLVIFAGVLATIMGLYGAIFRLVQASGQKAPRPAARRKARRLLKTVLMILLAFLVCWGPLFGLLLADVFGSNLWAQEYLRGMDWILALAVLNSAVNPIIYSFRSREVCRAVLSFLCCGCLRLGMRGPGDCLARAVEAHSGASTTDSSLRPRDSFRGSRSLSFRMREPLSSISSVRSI
# [14] = Trypanosoma cruzi growth suppression in host cells – NIH3T3 host cells, beta-gal luminescence, confirmation (AID 2044); type: functional, cell-based;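 note: intracellular parasites grown in NIH/3T3 mouse fibroblasts as host cells; luminescent beta-galactosidase reporter signal from transgenic T. cruzi replicating inside host cells; inhibitors lower the luminescence signal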
# [15] = target: Estrogen receptor beta (Homo sapiens, UniProt Q92731); assay: blockers of SRC-3 recruitment to ERβ – biochemical, ELISA, streptavidin-HRP readout, orthogonal assay, confirmation (AID 1060)
# Sequence of Estrogen receptor beta (Q92731 whole entry): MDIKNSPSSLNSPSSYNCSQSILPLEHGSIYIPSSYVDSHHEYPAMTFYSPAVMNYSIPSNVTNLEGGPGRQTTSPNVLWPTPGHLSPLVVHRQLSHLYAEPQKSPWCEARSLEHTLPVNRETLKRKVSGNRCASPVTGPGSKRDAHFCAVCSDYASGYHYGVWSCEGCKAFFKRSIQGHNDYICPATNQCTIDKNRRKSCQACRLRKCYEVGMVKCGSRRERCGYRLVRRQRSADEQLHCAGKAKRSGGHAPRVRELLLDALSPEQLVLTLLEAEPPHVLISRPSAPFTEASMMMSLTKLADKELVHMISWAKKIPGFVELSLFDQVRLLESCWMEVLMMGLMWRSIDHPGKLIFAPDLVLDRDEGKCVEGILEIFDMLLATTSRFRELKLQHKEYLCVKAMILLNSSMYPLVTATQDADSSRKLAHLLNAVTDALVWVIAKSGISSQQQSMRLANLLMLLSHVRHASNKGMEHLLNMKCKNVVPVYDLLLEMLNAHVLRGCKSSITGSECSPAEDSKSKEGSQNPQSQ
# [16] = target: Mothers against decapentaplegic homolog 3 (Homo sapiens, UniProt P84022); assay: inhibitors of SMAD-driven TGF-beta signaling – dose response (AID 715); type: functional
# Sequence of Mothers against decapentaplegic homolog 3 (P84022 whole entry): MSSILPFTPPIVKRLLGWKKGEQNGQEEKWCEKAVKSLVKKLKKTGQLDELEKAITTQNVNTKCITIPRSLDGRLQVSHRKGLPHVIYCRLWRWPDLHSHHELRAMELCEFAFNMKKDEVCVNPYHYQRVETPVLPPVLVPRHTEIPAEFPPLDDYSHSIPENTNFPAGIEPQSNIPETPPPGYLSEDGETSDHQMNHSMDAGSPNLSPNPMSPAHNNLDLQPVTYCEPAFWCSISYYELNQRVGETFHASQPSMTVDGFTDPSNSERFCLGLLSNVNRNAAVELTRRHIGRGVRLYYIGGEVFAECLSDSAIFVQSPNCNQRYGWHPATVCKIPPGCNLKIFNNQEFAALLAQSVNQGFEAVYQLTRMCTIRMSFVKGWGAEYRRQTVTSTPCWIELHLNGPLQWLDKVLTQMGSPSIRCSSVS
# [17] = target: T1, Neuropeptide Y receptor type 2; assay: Fluorescence-based counterscreen for agonists of NPY-Y1: cell-based high-throughput dose response assay for agonists of NPY-Y2.; type: functional
# [18] = tested on: HEK293; assay: Fluorescence-based counterscreen for potentiators or agonists of NPY-Y1: cell-based high-throughput dose response assay for inhibitors of cyclic nucleotide gated ion channel (CNGC) activity. In this assay, the parental HEK293 cell line transfected with a cyclic-nucleotide gated ion channel (CNGC)-based cAMP sensor is used to measure inhibition of isoproterenol-induced CNGC …; type: functional; details: Homo sapiens
# [19] = target: T2, Neuropeptide Y receptor type 1; assay: Fluorescence-based dose response cell-based high-throughput screening assay for agonists of NPY-Y1. [Related pubchem assays: 1697 (Screening assay (NPY-Y1 agonists).), 1359 (Screening assay (NPY-Y2 potentiators or agonists).), 1304 (Screening assay (NPY-Y1 potentiators or agonists).), 1704 (Screening assay (CNGC inhibitors).), 1791 (Summary AID.)]; type: functional
# [20] = target: Sphingosine 1-phosphate receptor 2 (Homo sapiens, UniProt O95136); assay: Dose Response Cell Based Assay for Agonists of the S1P2 Receptor of Purchased Analogues. [Related pubchem assays: 729, 843, 854, 736 ]; type: functional
# Sequence of Sphingosine 1-phosphate receptor 2 (O95136 whole entry): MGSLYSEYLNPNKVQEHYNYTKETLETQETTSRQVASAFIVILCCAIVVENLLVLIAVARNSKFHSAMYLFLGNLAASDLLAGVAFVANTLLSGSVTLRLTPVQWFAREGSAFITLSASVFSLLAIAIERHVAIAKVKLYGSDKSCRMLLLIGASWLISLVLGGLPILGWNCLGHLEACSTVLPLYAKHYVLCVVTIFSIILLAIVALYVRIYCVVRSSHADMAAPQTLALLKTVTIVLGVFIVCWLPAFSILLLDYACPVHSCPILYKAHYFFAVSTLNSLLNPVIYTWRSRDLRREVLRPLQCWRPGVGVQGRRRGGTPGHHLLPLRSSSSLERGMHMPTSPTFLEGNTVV
# [21] = target: NADPH oxidase 1 (Homo sapiens, UniProt Q9Y5S8); type: functional, cell-based;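 note: Cell-based assay with luminescence read-out, IC50 derived from inhibitor dose-response curves; intracellular ROS from endogenous NOX1 in intact HT29 colon cancer cells; potency of inhibitors that lower the ROS luminescence signal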
# [22] = target: Aspartyl aminopeptidase (Plasmodium falciparum 3D7, UniProt Q8I2J3)
# Sequence of Aspartyl aminopeptidase (Q8I2J3 whole entry): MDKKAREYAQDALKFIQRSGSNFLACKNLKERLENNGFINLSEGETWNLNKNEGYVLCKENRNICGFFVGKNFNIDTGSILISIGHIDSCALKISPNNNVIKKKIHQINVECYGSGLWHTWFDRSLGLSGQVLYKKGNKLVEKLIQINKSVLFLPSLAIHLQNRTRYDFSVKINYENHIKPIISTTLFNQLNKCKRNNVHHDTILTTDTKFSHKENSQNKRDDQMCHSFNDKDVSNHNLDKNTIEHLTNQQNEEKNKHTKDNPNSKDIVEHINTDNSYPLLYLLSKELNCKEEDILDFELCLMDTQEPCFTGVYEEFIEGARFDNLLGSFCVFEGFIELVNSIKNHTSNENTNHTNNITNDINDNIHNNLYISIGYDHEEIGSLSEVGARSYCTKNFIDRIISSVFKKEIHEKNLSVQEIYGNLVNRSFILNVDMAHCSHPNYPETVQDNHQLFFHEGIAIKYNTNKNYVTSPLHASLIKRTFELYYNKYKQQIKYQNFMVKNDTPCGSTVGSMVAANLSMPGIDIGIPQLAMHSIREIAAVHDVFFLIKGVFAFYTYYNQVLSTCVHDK
# [23] = target: Procathepsin L (Homo sapiens, UniProt P07711)
# [24] = target: T5, Leucine aminopeptidase (Plasmodium falciparum 3D7, UniProt Q8IL11); assay: P. falciparum M17LAP inhibitors, primary screen, biochemical, fluorogenic H-Leu-NHMec substrate, 1536-well (AID 1619); type: functional
# T5 sequence (Q8IL11 whole entry): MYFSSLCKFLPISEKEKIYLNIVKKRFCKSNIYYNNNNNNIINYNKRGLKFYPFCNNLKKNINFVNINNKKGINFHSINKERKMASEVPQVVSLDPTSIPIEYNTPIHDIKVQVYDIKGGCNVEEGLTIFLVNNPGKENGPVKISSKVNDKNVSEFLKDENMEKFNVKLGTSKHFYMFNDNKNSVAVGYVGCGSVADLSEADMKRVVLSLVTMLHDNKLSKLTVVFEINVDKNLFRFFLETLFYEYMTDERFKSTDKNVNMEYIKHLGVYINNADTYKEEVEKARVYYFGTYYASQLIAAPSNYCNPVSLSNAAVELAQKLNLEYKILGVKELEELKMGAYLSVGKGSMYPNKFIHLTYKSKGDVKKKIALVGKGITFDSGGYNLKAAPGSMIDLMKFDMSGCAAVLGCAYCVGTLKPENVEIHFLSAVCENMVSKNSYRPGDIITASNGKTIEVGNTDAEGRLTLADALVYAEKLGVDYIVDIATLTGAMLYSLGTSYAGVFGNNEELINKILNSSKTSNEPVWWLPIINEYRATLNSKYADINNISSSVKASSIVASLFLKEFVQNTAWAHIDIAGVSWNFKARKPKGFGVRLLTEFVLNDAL
# [25] = target: T6, Estrogen receptor (Homo sapiens, UniProt P03372); assay: ERα coactivator recruitment enhancers – biochemical, TR-FRET, ERα LBD, dose response (AID 737)
# T6 sequence (P03372 whole entry): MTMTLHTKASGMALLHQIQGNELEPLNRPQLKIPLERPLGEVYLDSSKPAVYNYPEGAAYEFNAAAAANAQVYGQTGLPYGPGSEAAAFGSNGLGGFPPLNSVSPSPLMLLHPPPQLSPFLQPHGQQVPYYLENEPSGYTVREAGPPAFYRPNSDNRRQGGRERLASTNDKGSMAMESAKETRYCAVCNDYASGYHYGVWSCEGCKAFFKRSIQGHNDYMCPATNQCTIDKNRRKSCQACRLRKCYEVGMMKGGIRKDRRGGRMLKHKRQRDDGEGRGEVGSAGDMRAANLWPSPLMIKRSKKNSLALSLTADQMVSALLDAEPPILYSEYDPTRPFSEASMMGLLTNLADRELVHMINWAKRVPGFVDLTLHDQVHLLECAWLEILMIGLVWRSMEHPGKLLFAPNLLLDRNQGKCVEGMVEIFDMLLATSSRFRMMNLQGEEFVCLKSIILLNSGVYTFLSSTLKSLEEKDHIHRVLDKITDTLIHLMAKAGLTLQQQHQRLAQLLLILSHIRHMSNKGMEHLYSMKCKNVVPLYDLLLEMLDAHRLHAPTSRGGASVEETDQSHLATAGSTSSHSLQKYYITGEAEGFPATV
# [26] = target: Large T antigen (Simian virus 40, UniProt P03070); type: functional, Betapolyomavirus macacae;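 note: Confirmatory-stage PubChem screen for compounds that inhibit SV40 T antigen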
# Sequence of Large T antigen (P03070 whole entry): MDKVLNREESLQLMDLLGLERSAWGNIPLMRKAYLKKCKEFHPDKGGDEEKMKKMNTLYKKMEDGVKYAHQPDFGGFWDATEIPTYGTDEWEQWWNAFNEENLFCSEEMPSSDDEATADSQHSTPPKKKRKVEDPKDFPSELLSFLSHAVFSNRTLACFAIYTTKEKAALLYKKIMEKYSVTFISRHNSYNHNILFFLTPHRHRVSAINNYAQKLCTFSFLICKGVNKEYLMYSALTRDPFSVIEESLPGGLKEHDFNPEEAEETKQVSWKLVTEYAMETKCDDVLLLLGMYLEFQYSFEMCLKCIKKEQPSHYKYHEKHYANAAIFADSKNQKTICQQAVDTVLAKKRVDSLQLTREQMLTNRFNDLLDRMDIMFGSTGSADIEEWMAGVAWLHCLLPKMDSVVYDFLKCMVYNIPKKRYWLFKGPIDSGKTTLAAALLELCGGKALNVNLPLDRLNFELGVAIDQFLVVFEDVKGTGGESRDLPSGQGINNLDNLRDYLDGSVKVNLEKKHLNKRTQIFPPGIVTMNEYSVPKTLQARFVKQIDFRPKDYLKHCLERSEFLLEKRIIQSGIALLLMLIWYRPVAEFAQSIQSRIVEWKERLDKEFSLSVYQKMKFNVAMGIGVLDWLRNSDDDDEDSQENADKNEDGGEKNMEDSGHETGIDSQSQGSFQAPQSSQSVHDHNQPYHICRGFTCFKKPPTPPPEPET
# T1 sequence (P49146 whole entry): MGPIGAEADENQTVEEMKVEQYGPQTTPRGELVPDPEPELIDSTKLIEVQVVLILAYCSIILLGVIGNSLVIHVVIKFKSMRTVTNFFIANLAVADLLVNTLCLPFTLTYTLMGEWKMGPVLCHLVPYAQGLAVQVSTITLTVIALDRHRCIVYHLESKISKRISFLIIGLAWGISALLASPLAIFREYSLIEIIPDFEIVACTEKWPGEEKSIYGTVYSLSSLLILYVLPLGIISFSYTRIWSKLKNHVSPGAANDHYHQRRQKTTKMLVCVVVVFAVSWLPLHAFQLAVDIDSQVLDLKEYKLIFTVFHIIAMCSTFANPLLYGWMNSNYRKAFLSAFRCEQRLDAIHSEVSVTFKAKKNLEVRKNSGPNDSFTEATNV
structure (smiles),measurement,setting,value
O=C(Nc1ccccc1)OCc1cc(-c2ccccc2Cl)on1,IC50,[1],14.7 µM (not active)
same,IC50,[2],9 µM (active)
same,EC50,[3],> 112 µM (not active)
same,EC50,[4],> 112 µM (not active)
CCOP(=O)(c1ccccc1)c1nc(-c2ccccc2C)oc1N1CCCCC1 (stereo unspecified),EC50,[5],> 20 µM (not active)
same,EC50,[6],> 20 µM (not active)
COc1cccc(NC(=O)COC(=O)/C=C/c2c(C)nn(-c3ccccc3)c2C)c1,IC50,[7],8.29 µM (active)
same,IC50,[8],> 55.7 µM (not active)
Cc1ccnc(N2C(=O)c3cccc4c([N+](=O)[O-])ccc(c34)C2=O)c1,IC50,[9],23.4 µM (inactive)
same,IC50,[10],> 66 µM (inactive)
same,EC50,[11],> 30 µM (not active)
same,IC50,[12],3.43 µM (active)
same,IC50,[13],1.62 µM (active)
same,EC50,[14],4.58 µM (active)
O=C(CCCn1c(=S)[nH]c2ccccc2c1=O)N1CCN(c2ccc(C(F)(F)F)cc2)CC1,IC50,[15],33 µM (not active)
Oc1ccccc1-c1nc(N2CCCC2)c2ccccc2n1,IC50,[16],14.6 µM (active)
CCC(C)C1C(C#N)=C(N)Oc2[nH]nc(-c3ccccc3)c21 (stereo unspecified),EC50,[17],> 35.4 µM (not active)
same,IC50,[18],25 µM (not active)
same,EC50,[19],> 35.4 µM (not active)
CCC1(CC)NC(=O)N(CC(=O)OCC(=O)c2cc(C)n(Cc3ccccc3)c2C)C1=O,EC50,[20],> 30 µM (not active)
COc1ccc(-c2nc(-c3ccccc3)c(-c3ccccc3)[nH]2)cc1,IC50,[21],> 17 µM (not active)
O=C(CSc1nc[nH]n1)Nc1ccc([N+](=O)[O-])cc1Br,IC50,[22],0.975 µM (active)
same,IC50,[23],> 59.6 µM (not active)
same,IC50,[24],19.9 µM (active)
CCOc1ccccc1N1CSC2=C(C#N)C(c3c(OC)ccc4ccccc34)CC(=O)N2C1 (stereo unspecified),EC50,[25],16.1 µM (active)
same,IC50,[26],78.8 µM (active)
